The results in this text go back to PMC2819980 (Chemistry & biology, 2010).

Holding throughout (format): biochemical
The target in assay [1] is T1, FrbI (Streptomyces rubellomurinus, UniProt Q0ZQ40). The assay can be described thus: HPLC / LC-MS product analysis, coupled with FrbH, FrbF and FrbG. The following applies: 10 mM MgCl2, HEPES pH 7.25, 30 °C; substrate formed in situ.
In the next assay the target is FrbH (Streptomyces rubellomurinus, UniProt Q0ZQ41). The assay can be described thus: HPLC / LC-MS product analysis. To be noted: 10 mM MgCl2, HEPES pH 7.25, 30 °C.
Sequence of FrbH (Q0ZQ41 whole entry): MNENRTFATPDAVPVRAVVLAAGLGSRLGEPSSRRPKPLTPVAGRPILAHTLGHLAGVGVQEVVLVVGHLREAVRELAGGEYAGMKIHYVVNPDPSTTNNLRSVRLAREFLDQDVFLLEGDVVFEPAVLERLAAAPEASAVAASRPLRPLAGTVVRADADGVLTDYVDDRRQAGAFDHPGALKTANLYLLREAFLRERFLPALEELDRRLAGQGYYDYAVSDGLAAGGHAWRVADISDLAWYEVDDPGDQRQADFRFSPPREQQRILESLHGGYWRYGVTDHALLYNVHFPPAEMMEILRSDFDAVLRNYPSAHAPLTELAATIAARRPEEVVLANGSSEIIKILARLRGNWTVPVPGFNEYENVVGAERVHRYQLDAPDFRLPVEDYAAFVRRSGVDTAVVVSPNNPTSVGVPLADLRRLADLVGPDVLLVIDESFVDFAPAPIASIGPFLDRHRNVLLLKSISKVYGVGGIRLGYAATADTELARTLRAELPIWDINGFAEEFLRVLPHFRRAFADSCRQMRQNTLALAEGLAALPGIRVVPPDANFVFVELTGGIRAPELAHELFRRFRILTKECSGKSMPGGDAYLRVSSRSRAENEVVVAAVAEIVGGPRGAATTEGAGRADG
In assay [2] the target is T1, FrbI. The assay can be described thus: in vitro hydrolysis.

Structures are written as SMILES.

T1 sequence (Q0ZQ40 whole entry): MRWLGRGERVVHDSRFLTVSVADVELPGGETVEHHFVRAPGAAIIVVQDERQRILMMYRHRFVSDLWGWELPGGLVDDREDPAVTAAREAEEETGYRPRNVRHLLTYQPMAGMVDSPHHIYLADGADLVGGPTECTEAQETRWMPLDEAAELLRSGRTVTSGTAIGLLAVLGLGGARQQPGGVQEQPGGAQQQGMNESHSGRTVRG

`CC(=O)N(O)CCCP(=O)(O)OP(=O)(O)OC[C@H]1O[C@@H](n2ccc(N)nc2=O)[C@H](O)[C@@H]1O` [IX, CMP-5'-FR-900098]: on FrbI [1], the “HPLC / LC-MS product analysis, coupled with FrbH, FrbF and FrbG” value is “FrbI catalyzes the hydrolysis of CMP-5'-FR-900098 to form FR-900098 and CMP”. In the case of `NC(CCP(=O)(O)O)C(=O)O` (racemic) [VI, 2APn], the “HPLC / LC-MS product analysis” value at FrbH (1 mM CTP) is “FrbH condenses 2APn and CTP to form CMP-5'-2APn”. For the compound `Nc1ccn([C@@H]2O[C@H](COP(=O)(O)OP(=O)(O)OP(=O)(O)O)[C@@H](O)[C@H]2O)c(=O)n1` [CTP], the in vitro hydrolysis entry at FrbI [2] is on record as “even showed a small amount of activity toward CTP”. At FrbH (2 mM (±)-2APn), the “HPLC / LC-MS product analysis” value was “FrbH condenses 2APn and CTP to form CMP-5'-2APn”.
